Measurements taken from ChEMBL document CHEMBL4321839, “Structure-activity relationships (SAR) of triazine derivatives: Promising antimicrobial agents” (Eur J Med Chem, 2020).
In brackets after ≈: the same amount, converted by molar mass.

Tests used:
[1] = test system: Bacillus subtilis; assay: Antimicrobial activity against Bacillus subtilis NCIM-2063 assessed as reduction in microbial growth after 24 hrs by CLSI based broth dilution method; type: functional; details: NCIM-2063, 24 h
[2] = test system: Escherichia coli; assay: Antimicrobial activity against Escherichia coli NCIM-2065 assessed as reduction in microbial growth after 24 hrs by CLSI based broth dilution method; type: functional; details: NCIM-2065, 24 h
[3] = test system: Lacticaseibacillus casei; assay: Antibacterial activity against Lactobacillus casei NCIM-2651 assessed as reduction in microbial growth incubated for 24 hrs by broth dilution method; type: functional; details: NCIM-2651, 24 h
[4] = test system: Staphylococcus aureus; assay: Antimicrobial activity against Staphylococcus aureus […] assessed as reduction in microbial growth after 24 to 48 hrs by microdilution susceptibility test; type: functional
[5] = test system: Escherichia coli; assay: Antimicrobial activity against Escherichia coli ATCC 25922 assessed as reduction in microbial growth after 24 to 48 hrs by microdilution susceptibility test; type: functional
[6] = test system: Bacillus subtilis; assay: Antimicrobial activity against Bacillus subtilis NCIM-2063 assessed as zone of inhibition at 5 ug after 24 hrs by disk diffusion method; type: functional; details: NCIM-2063, 24 h, read-out: IZ
[7] = test system: Bacillus cereus; assay: Antimicrobial activity against Bacillus cereus NCIM-2156 assessed as zone of inhibition at 5 ug after 24 hrs by disk diffusion method; type: functional; details: NCIM-2156, 24 h, read-out: IZ
[8] = test system: Staphylococcus aureus; assay: Antimicrobial activity against Staphylococcus aureus NCIM-2079 assessed as zone of inhibition at 5 ug after 24 hrs by disk diffusion method; type: functional; details: NCIM-2079, 24 h, read-out: IZ
[9] = test system: Pseudomonas aeruginosa; assay: Antimicrobial activity against Pseudomonas aeruginosa NCIM-2036 assessed as zone of inhibition at 5 ug after 24 hrs by disk diffusion method; type: functional; details: NCIM-2036, 24 h, read-out: IZ
[10] = test system: Escherichia coli; assay: Antimicrobial activity multi drug-resistant against Escherichia coli; type: functional
[11] = test system: Staphylococcus aureus; assay: Antimicrobial activity methicillin-resistant against Staphylococcus aureus; type: functional
[12] = Cytotoxicity against African green monkey Vero cells incubated for 72 hrs by MTT assay; type: cell-based; details: chlorocebus sabaeus
[13] = test system: Escherichia coli; assay: Antimicrobial activity against multi drug-resistant Escherichia coli assessed as reduction in microbial growth after 24 to 48 hrs by microdilution susceptibility test; type: functional
[14] = test system: Staphylococcus aureus; assay: Antimicrobial activity against methicillin-resistant Staphylococcus aureus assessed as reduction in microbial growth after 24 to 48 hrs by microdilution susceptibility test; type: functional
[15] = test system: Candida albicans; assay: Antifungal activity against Candida albicans NCIM-3102 at 18 to 24 hrs by CLSI based alamar blue assay; type: functional
[16] = test system: Proteus vulgaris; assay: Antimicrobial activity against Proteus vulgaris NCIM-2027 assessed as reduction in microbial growth after 24 hrs by CLSI based broth dilution method; type: functional; details: NCIM-2027, 24 h
[17] = test system: Pseudomonas aeruginosa; assay: Antimicrobial activity against Pseudomonas aeruginosa MTCC 1688 assessed as reduction in microbial growth after 24 to 48 hrs by broth dilution method; type: functional
[18] = test system: Staphylococcus aureus; assay: Antimicrobial activity against methicillin-resistant Staphylococcus aureus clinical isolate MRSA1 assessed as reduction in microbial growth by two-fold serial dilution method; type: functional
[19] = test system: Escherichia coli; assay: Antimicrobial activity against Escherichia coli MTCC 443 assessed as reduction in microbial growth after 24 to 48 hrs by broth dilution method; type: functional
[20] = test system: Klebsiella pneumoniae; assay: Antimicrobial activity against multi drug-resistant Klebsiella pneumoniae assessed as reduction in microbial growth by two-fold serial dilution method; type: functional
[21] = test system: Pseudomonas aeruginosa; assay: Antimicrobial activity against Pseudomonas aeruginosa NCIM-2036 after 24 hrs by CLSI based broth dilution method; type: functional; details: NCIM-2036, 24 h
[22] = test system: Proteus mirabilis; assay: Antimicrobial activity against Proteus mirabilis assessed as zone of inhibition after 18 hrs by disk diffusion method; type: functional
[23] = test system: Nakaseomyces glabratus; assay: Antifungal activity against Candida glabrata NCIM-3266 at 18 to 24 hrs by CLSI based alamar blue assay; type: functional
[24] = test system: Enterococcus faecium; assay: Antimicrobial activity against vancomycin-resistant Enterococcus faecium ATCC 51559 assessed as reduction in microbial growth incubated for 18 to 24 hrs by two-fold serial dilution method; type: functional

O=[N+]([O-])c1cccc(Nc2nc(NC3=NC(c4ccccc4O)=CC(c4ccccc4[N+](=O)[O-])S3)nc(Nc3cccc([N+](=O)[O-])c3)n2)c1 (configuration not stated)
MIC [1]: 6.25 µg/mL
MIC [2]: 12.5 µg/mL

Nc1nc(Nc2nc(-c3ccc(Cl)cc3)cs2)nc(Sc2ccccc2)n1
MIC [3]: 3.12 µg/mL

O=C(CNc1nc(NCC(=O)N/N=C/c2ccc(Cl)cc2)nc(Nc2ccc(-c3ccc(Nc4nc(NCC(=O)N/N=C/c5ccc(Cl)cc5)nc(NCC(=O)N/N=C/c5ccc(Cl)cc5)n4)cc3)cc2)n1)N/N=C/c1ccc(Cl)cc1
MIC [4]: 12.5 to 25 µg/mL
MIC [5]: 12.5 to 25 µg/mL

Nc1nc(Nc2ccccc2)nc(Nc2nc(-c3ccc(Cl)cc3)cs2)n1
MIC [3]: 3.12 µg/mL

Cc1ccc(Nc2nc(Nc3ccc(C)cc3)nc(N3CCN(C(=S)Nc4ccnc5cc(Cl)ccc45)CC3)n2)cc1
zone of inhibition at 5 µg/disc [6]: 16 to 17 mm
zone of inhibition at 5 µg/disc [7]: 9 to 17 mm
zone of inhibition at 5 µg/disc [8]: 16 to 17 mm
zone of inhibition at 5 µg/disc [9]: 9 to 17 mm

O=C(O)C1=CC(C2CC2)C2=C(CC(F)C3=NN=C(c4ccc([N+](=O)[O-])cc4)CN32)C1=O (configuration not stated)
MIC [10]: 0.25 µg/mL (≈ 0.589 µM)
MIC [11]: 0.25 to 8 µg/mL (≈ 0.589 to 18.9 µM)

O=C(O)C1=CC(C2CC2)C2=C(CC(F)C3=NN=C(c4ccccc4F)CN32)C1=O (configuration not stated)
MIC [10]: 0.25 µg/mL (≈ 0.629 µM)
MIC [11]: 0.25 to 8 µg/mL (≈ 0.629 to 20.1 µM)

O=C(O)c1ccc(Nc2nc(Cl)nc(NCc3ccccc3)n2)cc1
MIC [4]: 12.5 µg/mL
MIC [5]: 50 µg/mL
CC50 at 72 h [12]: 225 µg/mL (≈ 632 µM)
MIC [13]: 100 µg/mL
MIC [14]: 25 µg/mL

Clc1ccc(-c2csc(Nc3nc(N(c4ccccc4)c4ccccc4)nc(N(c4ccccc4)c4ccccc4)n3)n2)cc1
MIC [15]: 0.63 µg/mL (≈ 1.01 µM)

O=C1CSC(=O)N1c1nc(Nc2cccc(Cl)c2)nc(Nc2cccc(Cl)c2)n1
MIC [16]: 3.91 µg/mL

O=[N+]([O-])c1ccc(Nc2nc(Nc3ccc([N+](=O)[O-])cc3)nc(N3CCN(C(=S)Nc4ccnc5cc(Cl)ccc45)CC3)n2)cc1
zone of inhibition at 5 µg/disc [6]: 16 to 17 mm
zone of inhibition at 5 µg/disc [7]: 9 to 17 mm
zone of inhibition at 5 µg/disc [8]: 16 to 17 mm
zone of inhibition at 5 µg/disc [9]: 9 to 17 mm

O=C(O)C1=CC(C2CC2)C2=C(CC(F)C3=NN=C(c4cccc(Cl)c4)CN32)C1=O (configuration not stated)
MIC [10]: 8 µg/mL (≈ 19.3 µM)
MIC [11]: 8 µg/mL (≈ 19.3 µM)

O=C(CNc1nc(NCC(=O)N/N=C/c2ccc(Cl)cc2)nc(Nc2ccc(Nc3nc(NCC(=O)N/N=C/c4ccc(Cl)cc4)nc(NCC(=O)N/N=C/c4ccc(Cl)cc4)n3)cc2)n1)N/N=C/c1ccc(Cl)cc1
MIC [4]: 12.5 to 25 µg/mL
MIC [5]: 12.5 to 25 µg/mL

CC1(C)S[C@@H]2[C@H](NC(=O)[C@H](N)c3ccccc3)C(=O)N2[C@H]1C(=O)O.O.O.O [AMPICILLIN TRIHYDRATE]
MIC [4]: 12.5 µg/mL
MIC [5]: 25 µg/mL

CC1(C)S[C@@H]2[C@H](NC(=O)[C@H](N)c3ccccc3)C(=O)N2[C@H]1C(=O)O [AMPICILLIN]
MIC [17]: 100 µg/mL
MIC [18]: 6.25 µg/mL
MIC [4]: 12.5 µg/mL
MIC [19]: 100 µg/mL
MIC [5]: 25 µg/mL
MIC [13]: > 250 µg/mL
MIC [20]: 12.5 µg/mL
MIC [14]: > 250 µg/mL

C=CC1=C(C(=O)O)N2C(=O)[C@@H](NC(=O)/C(=N\OCC(=O)O)c3csc(N)n3)[C@H]2SC1 [CEFIXIME]
MIC [16]: 3.91 to 7.81 µg/mL
MIC [2]: 3.91 to 7.81 µg/mL
MIC [21]: 3.12 to 6.25 µg/mL (≈ 6.89 to 13.8 µM)

O=C(O)c1cn(C2CC2)c2cc(N3CCNCC3)c(F)cc2c1=O [CIPROFLOXACIN]
MIC [11]: 4 µg/mL (≈ 12.1 µM)
inhibition zone (IZ) [22]: 22 mm

OC(Cn1cncn1)(Cn1cncn1)c1ccc(F)cc1F [FLUCONAZOLE]
MIC [15]: 0.63 µg/mL (≈ 2.06 µM)
MIC [23]: 0.63 µg/mL (≈ 2.06 µM)

C[C@H]1COc2c(N3CCN(C)CC3)c(F)cc3c(=O)c(C(=O)O)cn1c23.C[C@H]1COc2c(N3CCN(C)CC3)c(F)cc3c(=O)c(C(=O)O)cn1c23.O [LEVOFLOXACIN]
MIC [1]: 3.12 µg/mL
zone of inhibition at 5 µg/disc [6]: 14 to 15 mm
zone of inhibition at 5 µg/disc [8]: 14 to 15 mm
MIC [2]: 3.12 µg/mL

CC[C@H](C)[C@H](NC(=O)CN)C(=O)NCC(=O)N[C@@H](C)C(=O)N[C@H](C(=O)N[C@@H](CC(C)C)C(=O)N[C@@H](CCCCN)C(=O)N[C@H](C(=O)N[C@@H](CC(C)C)C(=O)N[C@H](C(=O)N[C@H](C(=O)NCC(=O)N[C@@H](CC(C)C)C(=O)N1CCC[C@H]1C(=O)N[C@@H](C)C(=O)N[C@@H](CC(C)C)C(=O)N[C@H](C(=O)N[C@@H](CO)C(=O)N[C@@H](Cc1c[nH]c2ccccc12)C(=O)N[C@H](C(=O)N[C@@H](CCCCN)C(=O)N[C@@H](CCCNC(=N)N)C(=O)N[C@@H](CCCCN)C(=O)N[C@@H](CCCNC(=N)N)C(=O)N[C@@H](CCC(N)=O)C(=O)N[C@@H](CCC(N)=O)C(N)=O)[C@@H](C)CC)[C@@H](C)CC)[C@@H](C)O)[C@@H](C)O)C(C)C)C(C)C [MELITTIN]
MIC [24]: 2 µM

CN[C@@H]1[C@H](O[C@H]2[C@H](O[C@H]3[C@H](O)[C@@H](O)[C@H](N=C(N)N)[C@@H](O)[C@@H]3N=C(N)N)O[C@@H](C)[C@]2(O)C=O)O[C@@H](CO)[C@H](O)[C@H]1O [STREPTOMYCIN]
MIC [3]: 12.5 µg/mL
